The supplement of paper PMC12613149

What was measured:
[1] = reversed-phase LC retention time (C18, 15 min MeOH gradient); higher = more hydrophobic / later elution
[2] = collision cross section (TIMS, N2 drift gas) of the primary ion; higher = larger gas-phase ion size
[3] = ionization mode: ESI-, ion species: [M-H]-
[4] = ionization mode: ESI+, ion species: [M+H]+
[5] = ionization mode: ESI+, ion species: [M]+

Compound	reversed-phase LC retention time [1, 3] [min]	collision cross section [2, 3] [Å²]	reversed-phase LC retention time [1, 4] [min]	collision cross section [2, 4] [Å²]	reversed-phase LC retention time [1, 5] [min]	collision cross section [2, 5] [Å²]
O=S(=O)(O)c1cccc2ccc(O)cc12 [2-Naphthol-8-sulfonic acid]	7.16	144.25				
C#CCOS(=O)OC1CCCCC1Oc1ccc(C(C)(C)C)cc1 (configuration not stated) [Propargite]			17.4	195.16		
CC(C)(O)c1ccccc1CCC(SCC1(CC(=O)O)CC1)c1cccc(C=Cc2ccc3ccc(Cl)cc3n2)c1 (configuration not stated) [Montelukast]	17	244.69	17.7	243.08		
CCCCc1c(C)nc(NCC)nc1OS(=O)(=O)N(C)C [Bupirimate]			14.7	176.08		
Oc1cccc2[nH]nnc12 [4-Hydroxybenzotriazole]			5.99	123.13		
Nc1ccc(Oc2ccc(Cl)cc2Cl)cc1C(=O)O [Aminobifenox acid]	13.2	169.52	15.4	173.06		
O=C1CCCCCCCCCCCN1 [Dodecane-12-lactam]			13.9	148.39		
NC(N)=NC(=O)Cc1c(Cl)cccc1Cl [Guanfacine]			9.65	152.13		
O=Cc1c[nH]c2ccccc12 [Indole-3-carboxyaldehyde]	9.34	122.39				
O=P(O)(Oc1ccccc1)Oc1ccccc1 [Diphenylphosphate]	10.8	152.14	17.6	155.07		
COCCOCCOCCOCCOC [Tetraglyme]			8.94	152.39		
CC1(C)O[C@@H]2C[C@H]3[C@@H]4CCC5=CC(=O)C=C[C@]5(C)[C@H]4[C@@H](O)C[C@]3(C)[C@]2(C(=O)CO)O1 [Desonide]			13.6	200.7		
CC1(C)CON(Cc2ccccc2Cl)C1=O [Clomazon]			13.5	146.86		
CCCCC(CC)COP(=O)(OCC(CC)CCCC)OCC(CC)CCCC (configuration not stated) [Tris(2-ethylhexl)phosphate]			19.8	221.12		
Cc1c(NC=O)c(=O)n(-c2ccccc2)n1C [N-Formyl-4-aminoantipyrine]			7.74	149.16		
CC(Oc1ccc(Oc2cnc3cc(Cl)ccc3n2)cc1)C(=O)O (configuration not stated) [Quizalofop]	13.5	192.68				
COc1ccc2[nH]cc(CCNC(C)=O)c2c1 [Melatonin]	9.81	154.96	9.66	153.65		
Clc1ccc(COC(Cn2ccnc2)c2ccc(Cl)cc2Cl)c(Cl)c1 (configuration not stated) [Miconazole]			15.6	191.81		
c1ccc2[nH]cnc2c1 [Benzimidazole]			4.16	119.54		
CC(C)(C(=O)O)c1ccc(C(O)CCCN2CCC(C(O)(c3ccccc3)c3ccccc3)CC2)cc1 (configuration not stated) [Fexofenadine]	14.2	224.37	12.8	223.95		
Cc1cc(O)ccc1Cl [p-Chlorocresol]	11.6	122.21				

Compound	reversed-phase LC retention time [1, 3] [min]	collision cross section [2, 3] [Å²]	reversed-phase LC retention time [1, 4] [min]	collision cross section [2, 4] [Å²]	reversed-phase LC retention time [1, 5] [min]	collision cross section [2, 5] [Å²]
CCC[C@H]1CCCCN1 [Coniine]			6.79	129.06		
O=C(O)C(F)(F)C(F)(F)C(F)(F)C(F)(F)C(F)(F)C(F)(F)C(=O)O [Perfluorosuberic acid]	6.68	143.37				
C[C@H]1C[C@@H]2[C@H]([C@@H](O)C[C@@]3(C)[C@H]2CC[C@]3(O)C(=O)CO)[C@@]2(C)C=CC(=O)C=C12 [6alpha-Methylprednisolone]			13.3	190.78		
C=CCC1(C(C)CCC)C(=O)NC(=O)NC1=O (configuration not stated) [Secobarbital]	12.7	153.23				
S=c1nc[nH]c2nc[nH]c12 [6-Mercaptopurine]			2.22	126.69		
CCOC(=O)c1ccc(N(C)C)cc1 [Ethyl 4-(dimethylamino)benzoate]			14.2	148.66		
CC(C)Nc1nc(N)nc(Cl)n1 [Atrazine desethyl]			9.74	138.83		
CC(=O)c1cc(C(C)(C)C)c(O)c(C(C)(C)C)c1 [3,5-Di-tert-butyl-4'-hydroxyacetophenone]	16.3	165.11				
C[C@]12CCC3=C4CCC(=O)C=C4CC[C@H]3[C@@H]1CC[C@@]2(O)CC#N [Dienogest]			12.6	175.13		
CCN(CC)c1ccc2c(C)cc(=O)oc2c1 [7-Diethylamino-4-methylcoumarin]			14.3	152.41		
COC(=O)N(OC)c1ccccc1COc1ccn(-c2ccc(Cl)cc2)n1 [Pyraclostrobin]			15.8	184.99		
Oc1c(Br)cc(Br)cc1Br [2,4,6-Tribromophenol]	12.8	133.11				
CCCC1CC(C(=O)NC(C(C)Cl)C2OC(SC)C(O)C(O)C2O)N(C)C1 (configuration not stated) [Clindamycin]	16.1	200.27	11.5	203.51		
O=C(c1ccccc1)c1ccc(O)cc1 [4-Hydroxybenzophenone]	12	144.47				
Cc1cnc2c(C(=O)O)c(Cl)ccc2c1 [Quinmerac]			9.27	139.87		
O=C(O)C(F)(F)C(F)(F)C(F)(F)C(F)(F)C(F)(F)C(F)(F)C(F)(F)F [Perfluorooctanoic acid]	14.7	155.67				
CN(C)CCC=C1c2ccccc2CCc2ccccc21 [Amitriptyline]			13.1	167.84		
O=C1NS(=O)(=O)c2ccccc21 [Saccharin]	4.8	128.86				
CC(C)c1ccc(NC(=O)N(C)C)cc1 [Isoproturon]			13	151.88		
CCCCC(CC)COC(=O)c1ccc(Nc2nc(Nc3ccc(C(=O)OCC(CC)CCCC)cc3)nc(Nc3ccc(C(=O)OCC(CC)CCCC)cc3)n2)cc1 (configuration not stated)			19.5	282.62		
CCCCCCCCSc1nc(Nc2cc(C(C)(C)C)c(O)c(C(C)(C)C)c2)nc(SCCCCCCCC)n1			21	263.3		

Compound	reversed-phase LC retention time [1, 3] [min]	collision cross section [2, 3] [Å²]	reversed-phase LC retention time [1, 4] [min]	collision cross section [2, 4] [Å²]	reversed-phase LC retention time [1, 5] [min]	collision cross section [2, 5] [Å²]
Nc1cccc2cc(S(=O)(=O)O)ccc12 [5-Aminonaphthalene-2-sulfonic acid]	4.88	147.46				
Nc1ccc(S(=O)(=O)Nc2nccs2)cc1 [Sulfathiazole]	5.71	152.72	6.39	153.27		
O=P(OC(CCl)CCl)(OC(CCl)CCl)OC(CCl)CCl [TDCPP]			15.5	177.62		
CC(C)(C)NC(=O)[C@H]1CC[C@H]2[C@@H]3CC[C@H]4NC(=O)C=C[C@]4(C)[C@H]3CC[C@]12C [Finasteride]	15	198.56	14.6	203.71		
CCCCCCCCCCCCCCCCCC[N+](C)(C)CCCCCCCCCCCCCCCCCC [Dimethyldioctadecylammonium]					21.1	272.56
C[C@]12CC[C@H]3[C@@H](CCC4=CC(=O)CC[C@@]43C)[C@@H]1CC[C@@H]2O [Testosterone]			14.2	172.76		
C[C@H](CCC(=O)O)[C@H]1CC[C@H]2[C@@H]3[C@H](O)C[C@@H]4C[C@H](O)CC[C@]4(C)[C@H]3C[C@H](O)[C@]12C [Cholic acid]	14.7	203.99				
CCC(CC)Nc1c([N+](=O)[O-])cc(C)c(C)c1[N+](=O)[O-] [Pendimethalin]			17.1	160.71		
Oc1ccc(C2(c3ccc(O)cc3)c3ccccc3-c3ccccc32)cc1 [Fluorene-9-bisphenol]	15.3	194.22				
CO/N=C(/C(=O)O)c1ccccc1CO/N=C(\C(=O)O)c1cccc(C(F)(F)F)c1			13.6	195.58		
CN1CCN2c3ncccc3Cc3ccccc3C2C1 (configuration not stated) [Mirtazapine]			9.54	160.18		
CC(Oc1ccc(Oc2nc3ccc(Cl)cc3o2)cc1)C(=O)O (configuration not stated) [Fenoxaprop-P]	13.9	189.16	15.3	181.01		
O=P(c1ccccc1)(c1ccccc1)c1ccccc1 [Triphenylphosphine oxide]			13.9	163		
Oc1cc(Cl)ccc1Oc1ccc(Cl)cc1 [Diclosan]	16.2	152.57				
N#Cc1nn(-c2c(Cl)cc(C(F)(F)F)cc2Cl)c(N)c1S(=O)C(F)(F)F (configuration not stated) [Fipronil]	15.6	177.2				
Oc1ccccc1-c1ccccc1O [2,2'-Dihydroxybiphenyl]	15.6	143.93				
CNC(=O)CSP(=S)(OC)OC [Dimethoate]			9.08	141.81		
CCCCCCCCCCCCN(C)C [N,N-Dimethyldodecylamine]			15.4	169.68		
Cc1c(C=O)c(=O)n(-c2ccccc2)n1C [4-Formyl-antipyrine]			7.67	144.44		
CNCCC(Oc1ccc(C(F)(F)F)cc1)c1ccccc1 (configuration not stated) [Fluoxetine]			13.4	177.66		
